The NIST ThermoML archive (doi:10.1021/acs.jced.8b00713)
Numbers after ± are expanded uncertainties.

Settings: Liquid; for viscosity: Vibrating wire viscometry; for mass density: Vibrating tube method

SMILES: FC(F)(F)/C=C\C(F)(F)F [(Z)-1,1,1,4,4,4-hexafluorobut-2-ene]
- viscosity (253.14 K, 15000 kPa): 0.7477 ± 0.016 mPa·s
- viscosity (253.14 K, 20000 kPa): 0.7916 ± 0.017 mPa·s
- viscosity (253.15 K, 100 kPa): 0.6315 ± 0.014 mPa·s
- viscosity (253.15 K, 5000 kPa): 0.6695 ± 0.015 mPa·s
- viscosity (253.15 K, 25000 kPa): 0.8337 ± 0.018 mPa·s
- viscosity (253.15 K, 30100 kPa): 0.871 ± 0.019 mPa·s
- viscosity (253.16 K, 1000 kPa): 0.6387 ± 0.014 mPa·s
- viscosity (253.16 K, 2000 kPa): 0.647 ± 0.014 mPa·s
- viscosity (253.16 K, 10000 kPa): 0.7114 ± 0.015 mPa·s
- viscosity (253.16 K, 40000 kPa): 0.9576 ± 0.02 mPa·s
- viscosity (263.14 K, 2000 kPa): 0.5721 ± 0.013 mPa·s
- viscosity (263.14 K, 5000 kPa): 0.5916 ± 0.013 mPa·s
- viscosity (263.14 K, 30000 kPa): 0.7644 ± 0.017 mPa·s
- viscosity (263.15 K, 100 kPa): 0.5599 ± 0.013 mPa·s
- viscosity (263.15 K, 1000 kPa): 0.5656 ± 0.013 mPa·s
- viscosity (263.15 K, 10000 kPa): 0.6247 ± 0.014 mPa·s
- viscosity (263.15 K, 15000 kPa): 0.6579 ± 0.014 mPa·s
- viscosity (263.15 K, 20000 kPa): 0.6906 ± 0.015 mPa·s
- viscosity (263.16 K, 25000 kPa): 0.7286 ± 0.016 mPa·s
- viscosity (263.16 K, 40000 kPa): 0.8352 ± 0.018 mPa·s
- viscosity (273.13 K, 100 kPa): 0.493 ± 0.011 mPa·s
- viscosity (273.13 K, 10000 kPa): 0.5526 ± 0.012 mPa·s
- viscosity (273.14 K, 1000 kPa): 0.4975 ± 0.011 mPa·s
- viscosity (273.14 K, 15000 kPa): 0.584 ± 0.013 mPa·s
- viscosity (273.14 K, 25000 kPa): 0.643 ± 0.014 mPa·s
- viscosity (273.14 K, 29700 kPa): 0.6776 ± 0.015 mPa·s
- viscosity (273.15 K, 5000 kPa): 0.5227 ± 0.012 mPa·s
- viscosity (273.15 K, 20000 kPa): 0.6131 ± 0.014 mPa·s
- viscosity (273.16 K, 2000 kPa): 0.5035 ± 0.011 mPa·s
- viscosity (273.16 K, 40000 kPa): 0.7422 ± 0.016 mPa·s
- viscosity (283.14 K, 15000 kPa): 0.5206 ± 0.012 mPa·s
- viscosity (283.14 K, 20000 kPa): 0.547 ± 0.012 mPa·s
- mass density (283.15 K, 100 kPa): 1402.57 ± 0.48 kg/m3
- mass density (283.15 K, 1000 kPa): 1405.16 ± 0.49 kg/m3
- mass density (283.15 K, 2000 kPa): 1408.09 ± 0.49 kg/m3
- viscosity (283.15 K, 2000 kPa): 0.446 ± 0.01 mPa·s
- mass density (283.15 K, 5000 kPa): 1416.4 ± 0.51 kg/m3
- viscosity (283.15 K, 5000 kPa): 0.462 ± 0.011 mPa·s
- mass density (283.15 K, 10000 kPa): 1429.39 ± 0.55 kg/m3
- viscosity (283.15 K, 10000 kPa): 0.49 ± 0.011 mPa·s
- mass density (283.15 K, 15000 kPa): 1441.21 ± 0.6 kg/m3
- mass density (283.15 K, 20000 kPa): 1452.25 ± 0.67 kg/m3
- mass density (283.15 K, 25000 kPa): 1462.46 ± 0.74 kg/m3
- viscosity (283.15 K, 25000 kPa): 0.5731 ± 0.013 mPa·s
- mass density (283.15 K, 30000 kPa): 1472 ± 0.81 kg/m3
- viscosity (283.15 K, 30000 kPa): 0.6009 ± 0.013 mPa·s
- mass density (283.15 K, 40000 kPa): 1489.73 ± 0.99 kg/m3
- viscosity (283.15 K, 40000 kPa): 0.6578 ± 0.014 mPa·s
- mass density (283.15 K, 50000 kPa): 1505.53 ± 1.2 kg/m3
- mass density (283.15 K, 60000 kPa): 1520.01 ± 1.4 kg/m3
- mass density (283.15 K, 80000 kPa): 1545.15 ± 1.9 kg/m3
- mass density (283.15 K, 100000 kPa): 1566.76 ± 2.5 kg/m3
- viscosity (283.16 K, 100 kPa): 0.4357 ± 0.01 mPa·s
- viscosity (283.17 K, 1000 kPa): 0.4423 ± 0.01 mPa·s
- mass density (293.15 K, 100 kPa): 1377.12 ± 0.49 kg/m3
- mass density (293.15 K, 1000 kPa): 1380.09 ± 0.5 kg/m3
- viscosity (293.15 K, 1000 kPa): 0.3924 ± 0.0093 mPa·s
- mass density (293.15 K, 2000 kPa): 1383.27 ± 0.5 kg/m3
- viscosity (293.15 K, 2000 kPa): 0.3978 ± 0.0094 mPa·s
- mass density (293.15 K, 5000 kPa): 1392.34 ± 0.5 kg/m3
- mass density (293.15 K, 10000 kPa): 1406.41 ± 0.55 kg/m3
- viscosity (293.15 K, 10000 kPa): 0.4385 ± 0.01 mPa·s
- mass density (293.15 K, 15000 kPa): 1419.13 ± 0.59 kg/m3
- viscosity (293.15 K, 15100 kPa): 0.4651 ± 0.011 mPa·s
- mass density (293.15 K, 20000 kPa): 1430.86 ± 0.65 kg/m3
- mass density (293.15 K, 25000 kPa): 1441.76 ± 0.72 kg/m3
- viscosity (293.15 K, 25000 kPa): 0.5151 ± 0.012 mPa·s
- mass density (293.15 K, 30000 kPa): 1451.97 ± 0.79 kg/m3
- viscosity (293.15 K, 30000 kPa): 0.5414 ± 0.012 mPa·s
- viscosity (293.15 K, 40000 kPa): 0.5919 ± 0.013 mPa·s
- mass density (293.15 K, 60000 kPa): 1501.97 ± 1.4 kg/m3
- mass density (293.15 K, 80010 kPa): 1528.17 ± 1.9 kg/m3
- mass density (293.15 K, 99990 kPa): 1550.16 ± 2.4 kg/m3
- viscosity (293.16 K, 200 kPa): 0.388 ± 0.0092 mPa·s
- viscosity (293.16 K, 5000 kPa): 0.4135 ± 0.0097 mPa·s
- viscosity (293.16 K, 20000 kPa): 0.4904 ± 0.011 mPa·s
- mass density (293.16 K, 40000 kPa): 1470.38 ± 0.96 kg/m3
- mass density (293.16 K, 50000 kPa): 1486.98 ± 1.2 kg/m3
- viscosity (303.14 K, 20000 kPa): 0.441 ± 0.01 mPa·s
- mass density (303.15 K, 100 kPa): 1351.47 ± 0.52 kg/m3
- viscosity (303.15 K, 200 kPa): 0.3454 ± 0.0084 mPa·s
- mass density (303.15 K, 1000 kPa): 1354.72 ± 0.51 kg/m3
- viscosity (303.15 K, 1000 kPa): 0.3494 ± 0.0085 mPa·s
- viscosity (303.15 K, 5000 kPa): 0.3692 ± 0.0089 mPa·s
- mass density (303.15 K, 10000 kPa): 1383.63 ± 0.54 kg/m3
- mass density (303.15 K, 15000 kPa): 1397.49 ± 0.58 kg/m3
- viscosity (303.15 K, 15000 kPa): 0.4173 ± 0.0097 mPa·s
- mass density (303.15 K, 25000 kPa): 1421.76 ± 0.7 kg/m3
- viscosity (303.15 K, 25000 kPa): 0.4647 ± 0.011 mPa·s
- mass density (303.15 K, 30000 kPa): 1432.55 ± 0.77 kg/m3
- viscosity (303.15 K, 30000 kPa): 0.4879 ± 0.011 mPa·s
- viscosity (303.15 K, 40000 kPa): 0.5357 ± 0.012 mPa·s
- mass density (303.15 K, 50000 kPa): 1469.43 ± 1.1 kg/m3
- mass density (303.15 K, 60000 kPa): 1485.09 ± 1.4 kg/m3
- mass density (303.15 K, 80000 kPa): 1512.19 ± 1.8 kg/m3
- mass density (303.15 K, 100010 kPa): 1535.09 ± 2.3 kg/m3
- mass density (303.16 K, 2000 kPa): 1358.24 ± 0.51 kg/m3
- viscosity (303.16 K, 2000 kPa): 0.3548 ± 0.0086 mPa·s
- mass density (303.16 K, 5000 kPa): 1368.33 ± 0.51 kg/m3
- mass density (303.16 K, 20000 kPa): 1410.02 ± 0.63 kg/m3
- mass density (303.16 K, 40000 kPa): 1452.02 ± 0.93 kg/m3
- viscosity (303.17 K, 10000 kPa): 0.3938 ± 0.0093 mPa·s
- mass density (313.14 K, 1000 kPa): 1327.46 ± 0.53 kg/m3
- mass density (313.14 K, 100010 kPa): 1519.55 ± 2.3 kg/m3
- mass density (313.15 K, 500 kPa): 1325.41 ± 0.53 kg/m3
- viscosity (313.15 K, 500 kPa): 0.31 ± 0.0077 mPa·s
- viscosity (313.15 K, 1000 kPa): 0.3121 ± 0.0078 mPa·s
- mass density (313.15 K, 2000 kPa): 1331.4 ± 0.52 kg/m3
- viscosity (313.15 K, 2000 kPa): 0.3173 ± 0.0079 mPa·s
- mass density (313.15 K, 5000 kPa): 1342.64 ± 0.52 kg/m3
- viscosity (313.15 K, 5000 kPa): 0.3312 ± 0.0081 mPa·s
- mass density (313.15 K, 10000 kPa): 1359.5 ± 0.54 kg/m3
- mass density (313.15 K, 15000 kPa): 1374.49 ± 0.57 kg/m3
- viscosity (313.15 K, 15000 kPa): 0.3776 ± 0.009 mPa·s
- mass density (313.15 K, 20000 kPa): 1388.16 ± 0.62 kg/m3
- viscosity (313.15 K, 20000 kPa): 0.3989 ± 0.0094 mPa·s
- mass density (313.15 K, 25000 kPa): 1400.64 ± 0.68 kg/m3
- viscosity (313.15 K, 25000 kPa): 0.421 ± 0.0098 mPa·s
- mass density (313.15 K, 30000 kPa): 1412.04 ± 0.74 kg/m3
- viscosity (313.15 K, 30000 kPa): 0.4431 ± 0.01 mPa·s
- mass density (313.15 K, 40000 kPa): 1432.78 ± 0.9 kg/m3
- viscosity (313.15 K, 40000 kPa): 0.4866 ± 0.011 mPa·s
- mass density (313.15 K, 80010 kPa): 1495.94 ± 1.8 kg/m3
